According to patent publication US9073967B2, “High salt-resistance antibacterial peptide and method for producing the same” (NATIONAL TSING HUA UNIVERSITY, priority 2011, dated 2015):
Converted amounts (≈) assume the structure as drawn. “Also recorded” adds a separate entry of the source. Where a SMILES comes first, the peptide text is derived from it. [ ]: non-standard residue; d: D form. 2Nal = N[C@@H](Cc1ccc2ccccc2c1)C(=O)O

Legend:
[1] = tested on: P. arugenosa ATCC 27853; assay: Antibacterial ability in different salt (NaCl) concentration, LYM medium
Description: (§4) All bacteria strains of above microbes were cultured in LYM medium. […] The NaCl concentrations in LYM were divided into four groups of 50 mM, 100 mM, 200 mM, 300 mM and the microbes were cultured in the four group of LYM and diluted to a 10^4 CFU/ml bacterial solution. Then added 100 μl of the bacterial solution into 96-well culture dish and added different concentration of antibacterial peptides P113, Phe-P113, Nal-P113 or Bip-P113 to evaluate the antibacterial ability in 50 mM, 100 mM, 200 mM, 300 mM concentration of NaCl. (Note: In addition to NaCl, the LYM medium also contains 5.4 mM KCl, 5.6 mM Na2HPO4, 0.5 mM MgSO4, and 1.0 mM sodium citrate. Besides, 0.4 mg of ZnCl2, 2.0 mg of FeCl3.6H2O, 0.1 mg of CuSO4.5H2O, 0.1 mg of MnSO4.H2O, 0.1 mg of Na2B4O7.10H2O, 700 mg of amino acid mixtures without tryptophan (Clontech), and 20 mg of L-Tryptophan were added per liter of medium. Then added moderate amount of glucose, amino acid, and vitamins mixture from the RPM1-1640 Select-Amine Kit)

[2] = tested on: S. aureus ATCC 29213; assay: as above
Description: as §4

[3] = tested on: S. aureus ATCC 25923; assay: Antibacterial ability in different MgCl2 concentration; assay type: cell-based
[4] = tested on: P. arugenosa ATCC 27853; assay: as above; assay type: cell-based
[5] = tested on: E. coli ATCC 25922; assay: as above; assay type: cell-based
[6] = tested on: Bacteria strains; assay: Antibacterial ability in different salt concentration, overall statement; details: different concentration of NaCl / salt
Description: as §4

[7] = tested on: P. arugenosa ATCC 9027; assay: Antibacterial ability in different MgCl2 concentration; assay type: cell-based
[8] = tested on: S. aureus ATCC 29213; assay: as above; assay type: cell-based
[9] = tested on: S. aureus ATCC 19636; assay: as above; assay type: cell-based
[10] = tested on: P. arugenosa ATCC 9027; assay: Antibacterial ability in different salt (NaCl) concentration, LYM medium
Description: as §4

[11] = tested on: E. coli ATCC 25922; assay: as above
Description: as §4

[12] = tested on: S. aureus ATCC 25923; assay: as above
Description: as §4

[13] = tested on: Staphylococcus aureus strains ATCC 29213; assay: Antibacterial activity assay, NCCLS microdilution MIC in MHB; assay type: cell-based
Description: (§1) For testing the antibacterial ability of Phe-P113, Nal-P113 and Bip-P113 in different salt concentration, we use Antibacterial activity assay to perform the test. Three bacteria strains are used: Eschericha coli strains (ATCC 25922), Staphylococcus aureus strains (ATCC 25923, 29213 and 19636, methicillin-resistant) and Pseudomonas aeruginosa strains (ATCC 27853 and 9027, ampicillin-resistant).
(§2) The microdilution method of National Committee for Clinical Laboratory Standards (NCCLS) is used to evaluate ‘The minimal inhibition concentration (MIC)’. The minimum concentration that can inhibit 90% or more microbes is the ‘minimal inhibition concentration’.
(§3) In the microdilution method, the 1 μl peptide solution (The concentration is between the range of 5000 μg/ml to 78.1 μg/ml) and the 99 μl inoculums (5×10^5 CFU/ml) is mixed incubated in 96-well culture dish coated with polyethylene under 37° C. for 16 hr. Then evaluated the turbidity in O.D.600 by ELISA plate reader (Thermo Max, Molecular Devices, Sunnyvale, Calif.). Take the Muller-Hinton Broth (MHB) and inoculums suspension with adding peptides as negative and positive control group relatively. The result of MIC is the minimum concentration of peptides that can inhibit the bacteria growth (equal to or more than 90%).

[14] = tested on: Staphylococcus aureus strains ATCC 19636; assay: as above; assay type: cell-based
Description: as §1, §2, §3

[15] = tested on: Pseudomonas aeruginosa strains ATCC 27853; assay: as above; assay type: cell-based
Description: as §1, §2, §3

[16] = tested on: Staphylococcus aureus strains ATCC 25923; assay: as above; assay type: cell-based
Description: as §1, §2, §3

[17] = tested on: Pseudomonas aeruginosa strains ATTC 9027; assay: as above; assay type: cell-based
Description: as §1, §2, §3

[18] = tested on: Eschericha coli strains ATCC 25922; assay: as above; assay type: cell-based
Description: as §1, §2, §3

[19] = tested on: S. aureus ATCC 19636; assay: Antibacterial ability in different salt (NaCl) concentration, LYM medium
Description: as §4

[20] = tested on: C. tropicalis ATCC 13803 YLO86

## C[C@H](N)C(=O)N[C@@H](CCCCN)C(=O)N[C@@H](CCCNC(=N)N)C(=O)N[C@@H](Cc1ccc2ccccc2c1)C(=O)N[C@@H](Cc1ccc2ccccc2c1)C(=O)NCC(=O)N[C@@H](Cc1ccc(O)cc1)C(=O)N[C@@H](CCCCN)C(=O)N[C@@H](CCCNC(=N)N)C(=O)N[C@@H](CCCCN)C(=O)N[C@@H](Cc1ccccc1)C(=O)N[C@@H](Cc1ccc2ccccc2c1)C(N)=O [Nal-P113] (H-AKR[2Nal][2Nal]GYKRKF[2Nal]-NH2; N-terminus and C-terminus assumed)
[1]; NaCl 50 mM
  antibacterial ability (MIC): 1.56
[1]; NaCl 100 mM
  antibacterial ability (MIC): 12.5
[1]; NaCl 200 mM
  antibacterial ability (MIC): 50
[1]; NaCl 300 mM
  antibacterial ability (MIC): >50
[2]; NaCl 50 mM
  antibacterial ability (MIC): 1.56
[2]; NaCl 100 mM
  antibacterial ability (MIC): 3.125
[2]; NaCl 200 mM
  antibacterial ability (MIC): 6.25
[2]; NaCl 300 mM
  antibacterial ability (MIC): 25
[3]; Control group
  antibacterial ability (MIC): 1.56 µg/mL
[3]; MgCl2 0.5 mM
  antibacterial ability (MIC): 3.12 µg/mL
[3]; MgCl2 1.5 mM
  antibacterial ability (MIC): 3.12 µg/mL
[3]; MgCl2 2.5 mM
  antibacterial ability (MIC): 3.12 µg/mL
[4]; Control group
  antibacterial ability (MIC): 1.56 µg/mL
[4]; MgCl2 0.5 mM
  antibacterial ability (MIC): 3.12 µg/mL
[4]; MgCl2 1.5 mM
  antibacterial ability (MIC): 3.21 µg/mL
[4]; MgCl2 2.5 mM
  antibacterial ability (MIC): 6.25 µg/mL
[5]; Control group
  antibacterial ability (MIC): 3.12 µg/mL
[5]; MgCl2 0.5 mM
  antibacterial ability (MIC): 3.12 µg/mL
[5]; MgCl2 1.5 mM
  antibacterial ability (MIC): 6.25 µg/mL
[5]; MgCl2 2.5 mM
  antibacterial ability (MIC): 12.5 µg/mL
[6]
  antibacterial ability in different concentration of salt (in words): better than P-113; also recorded: remains their activity of antibacterial
[7]; Control group
  antibacterial ability (MIC): 3.12 µg/mL
[7]; MgCl2 0.5 mM
  antibacterial ability (MIC): 6.25 µg/mL
[7]; MgCl2 1.5 mM
  antibacterial ability (MIC): 6.25 µg/mL
[7]; MgCl2 2.5 mM
  antibacterial ability (MIC): 12.5 µg/mL
[8]; Control group
  antibacterial ability (MIC): 1.56 µg/mL
[8]; MgCl2 0.5 mM
  antibacterial ability (MIC): 1.56 µg/mL
[8]; MgCl2 1.5 mM
  antibacterial ability (MIC): 1.56 µg/mL
[8]; MgCl2 2.5 mM
  antibacterial ability (MIC): 1.56 µg/mL
[9]; Control group
  antibacterial ability (MIC): 6.25 µg/mL
[9]; MgCl2 0.5 mM
  antibacterial ability (MIC): 12.5 µg/mL
[9]; MgCl2 1.5 mM
  antibacterial ability (MIC): 12.5 µg/mL
[9]; MgCl2 2.5 mM
  antibacterial ability (MIC): 25 µg/mL
[10]; NaCl 50 mM
  antibacterial ability (MIC): 6.25
[10]; NaCl 100 mM
  antibacterial ability (MIC): 50
[10]; NaCl 200 mM
  antibacterial ability (MIC): 50
[10]; NaCl 300 mM
  antibacterial ability (MIC): >50
[11]; NaCl 50 mM
  antibacterial ability (MIC): 3.125
[11]; NaCl 100 mM
  antibacterial ability (MIC): 12.5
[11]; NaCl 200 mM
  antibacterial ability (MIC): 25
[11]; NaCl 300 mM
  antibacterial ability (MIC): 50
[12]; NaCl 50 mM
  antibacterial ability (MIC): 1.56
[12]; NaCl 100 mM
  antibacterial ability (MIC): 3.125
[12]; NaCl 200 mM
  antibacterial ability (MIC): 12.5
[12]; NaCl 300 mM
  antibacterial ability (MIC): 50
[13]
  minimal inhibition concentration (MIC): 6.25
[14]
  minimal inhibition concentration (MIC): 6.25
[15]
  minimal inhibition concentration (MIC): 50
[16]
  minimal inhibition concentration (MIC): 6.25
[17]
  minimal inhibition concentration (MIC): 50
[18]
  minimal inhibition concentration (MIC): 12.5
[19]; NaCl 50 mM
  antibacterial ability (MIC): 12.5
[19]; NaCl 100 mM
  antibacterial ability (MIC): 25
[19]; NaCl 200 mM
  antibacterial ability (MIC): 50
[19]; NaCl 300 mM
  antibacterial ability (MIC): 50
[20]
  MIC: 6.25 µg/mL (≈ 3.58 µM)
